In patent US6900021B1, “Microfluidic system and methods of use” (The University of Alberta, priority 1997, dated 2005):
Each block holds one compound with its values, some of them ahead of it.

Columns and labels:
[1] = tested on: human lymphocytes; assay: Calcium influx assay (stop flow, Fluo-3 AM fluorescence) with activator; type: cell-based; settings: single lymphocyte
From the text: Calcium influx is involved in major cell functions and responses of lymphocytes. In this assay, the calcium ion influx into the lymphocytes is induced by a calcium releasing agent, calcimycin (A23187, calcium ionophore). The rise in the concentration of free intracellular calcium ions results in an increase in fluorescent signal from cells pretreated with a fluorescing agent. The kinetic results of calcium influx may be studied with the stop flow method in the microfluidic device.
There are several steps in the study of the process of calcium influx. First, an activator, calcimycin (A23187 calcium ionophore) and the calcium ion complex must adsorb on the cell surface. Second, the complex has to diffuse through the cell membrane. Third, once inside the cytosol, dissociation between the A23187 and calcium ion has to take place. Finally, a fluorescing agent, FLUO-3 AM, complexes with the released calcium and produces emitted light that can be detected (fluorescence).
For measurement of calcium influx, a calcium-specific fluorophore, Fluo-3 AM (Molecular Proves), was preloaded into purified human lymphocytes as acetoxymethyl (AM) ester. […]
A fluorescence microscope equipped with a 25× objective and a CCD camera was positioned over the detection zone, point “B” in FIG. 8, allowed the observation of cells as they passed the detection zone. […]

[2] = tested on: human lymphocytes; assay: Calcium influx assay with lymphocyte inhibitor; type: cell-based
Experimental: The microfluidic device and human lymphocytes were prepared as described in Example III.
With reference to FIG. 8, 100 μM of verapamil, an inhibitor, was introduced into channel #1; buffer was introduced into channel #2; leukocytes were introduced into channel #3; and calcium activator A23187 was introduced into channel #4.
The device was run as described in Example III above. Verapamil was introduced to the lymphocytes at point “A” intersection of the device (FIG. 8). The lymphocytes were incubated with verapamil for four minutes while transported through the main channel to the mixing point “B”.

[3] = target: T1, P-selectin (Homo sapiens, UniProt P16109); assay: Cell rolling of neutrophils on P-selectin coated microchip; type: cell-based; settings: concentration not given
T1 sequence (P16109 42-830): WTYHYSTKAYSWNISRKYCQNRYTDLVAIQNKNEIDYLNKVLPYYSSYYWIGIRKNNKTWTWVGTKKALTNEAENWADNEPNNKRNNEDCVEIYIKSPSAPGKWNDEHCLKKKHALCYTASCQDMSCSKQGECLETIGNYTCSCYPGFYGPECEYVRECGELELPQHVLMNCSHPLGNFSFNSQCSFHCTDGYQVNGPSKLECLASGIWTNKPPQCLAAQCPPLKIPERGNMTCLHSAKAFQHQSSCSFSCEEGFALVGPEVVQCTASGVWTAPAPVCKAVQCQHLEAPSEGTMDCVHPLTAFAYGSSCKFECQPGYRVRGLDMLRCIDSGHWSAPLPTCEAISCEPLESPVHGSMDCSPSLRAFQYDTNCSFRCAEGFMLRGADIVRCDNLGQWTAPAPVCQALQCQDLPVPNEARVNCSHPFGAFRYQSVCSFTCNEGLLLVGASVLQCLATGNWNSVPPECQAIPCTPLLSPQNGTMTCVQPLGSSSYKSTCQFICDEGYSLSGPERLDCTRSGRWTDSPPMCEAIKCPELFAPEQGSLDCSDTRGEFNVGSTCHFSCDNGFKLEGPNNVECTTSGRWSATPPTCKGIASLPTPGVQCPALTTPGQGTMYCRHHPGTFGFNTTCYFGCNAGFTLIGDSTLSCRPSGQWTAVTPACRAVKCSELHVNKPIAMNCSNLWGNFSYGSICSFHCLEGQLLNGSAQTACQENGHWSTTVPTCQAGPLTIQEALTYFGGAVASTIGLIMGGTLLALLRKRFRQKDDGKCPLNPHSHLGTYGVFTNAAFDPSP
Experimental: In preparation for cell rolling, the channels were coated with the desired selectin by methods similar to those set forth in Example VII.
To study cell rolling, two reservoirs leading to one channel were filled with cells. The contents of both the first and second reservoir (cells only) were drawn into the channel and cell rolling was observed.
The HCRIVa microchip was coated with 20 μg/ml P-selectin by methods similar to that described in Example VII and incubated for two hours. Isolated human neutrophils were moved through the rolling microchip with a flow rate of 10 μl/min. (approx. 800/cm shear rate=40 dynes/cm^2 shear force).

[4] = target: T2, E-selectin (Homo sapiens, UniProt P16581); assay: Cell rolling of neutrophils on E-selectin coated microchip; type: cell-based; settings: concentration not given
T2 sequence (P16581 22-610): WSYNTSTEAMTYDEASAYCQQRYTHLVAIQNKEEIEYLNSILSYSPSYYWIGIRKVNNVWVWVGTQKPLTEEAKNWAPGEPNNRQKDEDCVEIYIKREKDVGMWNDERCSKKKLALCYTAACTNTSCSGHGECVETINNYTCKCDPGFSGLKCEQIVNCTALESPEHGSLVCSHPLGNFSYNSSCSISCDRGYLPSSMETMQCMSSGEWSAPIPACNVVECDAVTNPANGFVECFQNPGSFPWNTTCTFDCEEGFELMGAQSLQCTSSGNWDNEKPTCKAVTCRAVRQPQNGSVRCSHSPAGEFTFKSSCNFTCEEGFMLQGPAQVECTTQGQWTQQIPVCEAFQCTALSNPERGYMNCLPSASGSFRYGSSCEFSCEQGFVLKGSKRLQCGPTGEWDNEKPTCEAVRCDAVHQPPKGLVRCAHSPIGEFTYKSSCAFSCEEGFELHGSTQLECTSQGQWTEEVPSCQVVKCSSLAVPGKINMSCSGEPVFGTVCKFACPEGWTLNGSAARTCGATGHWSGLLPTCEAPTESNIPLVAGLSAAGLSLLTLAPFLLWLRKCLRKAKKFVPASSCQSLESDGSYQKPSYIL

[5] = target: T2, E-selectin; assay: Cell rolling assay with undiluted human blood, E-selectin coated device; type: cell-based; settings: heparinated whole human blood; HCRIVc device
Experimental: (§1) This device was previously coated either P-selectin or E-selectin as described above. 50 μl heparinated whole human blood (1 mg/ml heparin was added to the blood) was introduced into the first reservoir of the “Y” shape device shown in FIG. 12. The human blood was moved from the reservoir into the channel by a syringe pump at optimum flow rate for the device (see Table II) and the main flow channel, about 1-2 cm from intersection of “Y”, was observed under the microscope for 15 minutes.
(§2) 50 μl of a mixture of inhibitor and heparinated blood was placed into the second reservoir and introduced into the channel for 3-10 minutes.

[6] = target: T1, P-selectin; assay: Cell rolling assay with undiluted human blood, P-selectin coated device; type: cell-based; settings: heparinated whole human blood; HCRIVc device
Experimental: as §1, §2

[7] = tested on: canine erythrocytes; assay: Lysis of canine erythrocytes by SDS in the microchip; type: cell-based, dog
Experimental: A phosphate buffer, 40 mM each of NA2HPO4 and KH2PO4 (BDH analytical grade) was adjusted to pH 7.4 with either NaOH or HCl and used as an isotonic buffer for canine erythrocytes. (The plasma concentrations of […] in canine plasma are 94 and 6 mM. respectively. (8,9) Assuming a monoanion as the counterion gives as osmolarity of 200 mM, equal to that of the buffer prepared.) A hypotonic solvent, deionized water, was used to prepare yeast or E. coli cell suspensions. Sodium dodecyl sulfate (SDS, Serva, analytical grade) was prepared at 3 mM (0.1 wt %) in deionized water. Other chemicals were reagent grade and were used without further purification.
Red blood cells of a healthy dog were obtained from Heritage Medical Research Centre (Edmonton, AB, Canada). Blood samples were collected using EDTA as the anticoagulant. These were centrifuged for separation into various blood components. After removal of the plasma and buffy coat, the erythrocytes were isolated as a cell pellet. A citrate-phosphate-dextrose (CPD) solution, (9), used to store human whole blood for enhancement of the poststorage viability of red cells, (10), was adapted for handling and storing the canine cells by addition of KCl and NaCl as well. The solutions contained 2.5 mM dextrose, 1.6 mM sodium citrate, 0.28 mM citric acid, 0.15 mM Na2HPO4, 94 mM NaCl, and 6.0 mM KCl. An erythrocyte suspension of 5% hematocrit was used. The cells were washed several times with the isotonic phosphate buffer to remove the storage buffer, using a Sanyo MSE MicroCentaur centrifuge.
The visual cell lysis experiment was performed in the COPI device (FIG. 5A). The B reservoir, which contained erythrocytes and the S reservoir, containing 3 mM SDS, were both at +150 V, while the SW reservoir was at ground. The potential at BW was floating.
For the cell lysis experiment using PMT detection, the PCRD2 device (FIG. 5B) was used. Cells were introduced into the S reservoir to which 400 V was applied, versus ground on the SW reservoir. A 3 mM SDS solution was introduced into the B reservoir. […]

Compound: CNc1ccc2oc(C[C@H]3O[C@@]4(CC[C@H]3C)O[C@H]([C@H](C)C(=O)c3ccc[nH]3)[C@H](C)C[C@H]4C)nc2c1C(=O)O [A23187, calcimycin]
time at the mixing point until lymphocyte showed fluorescence caused by calcium influx [1]: 4 s

Compound: COc1ccc(CCN(C)CCCC(C#N)(c2ccc(OC)c(OC)c2)C(C)C)cc1OC (centres unmarked) [verapamil]
activation in calcium flux ([2]; 100 μM, incubated four minutes, activator A23187): significant reduction
fluorescence of inhibitor treated lymphocyte after activation with A23187 ([2]; 100 μM, incubated four minutes, twenty individual lymphocytes): no fluorescence
inhibition of calcium influx ([2]; lymphocytes incubated for 30 seconds in the mixing channel): no inhibition

inhibition of rolling of the neutrophils in the presence of P-selectin [3]: took a longer time to inhibit rolling
inhibition of rolling of the neutrophils in the presence of E-selectin [4]: took a longer time to inhibit rolling
inhibition of leukocyte rolling in whole blood in the presence of E-selectin [5]: took a longer time to inhibit rolling
inhibition of leukocyte rolling in whole blood in the presence of P-selectin [6]: took a longer time to inhibit rolling
Compound: Fucoidine

Compound: CCCCCCCCCCCCOS(=O)(=O)[O-].[Na+] [SDS, Sodium dodecyl sulfate]
scattered light signal from the cells ([7]; 3 mM SDS in deionized water, PMT 2.5 mm downstream of mixing point, PCRD2 device): signal dropped
total time elapsed for lysis of the marked cells (three frames) ([7]; 3 mM SDS, COPI device, double-T region, 130 V/cm): 0.3 s
lysis of erythrocytes (hemolysis) in a flowing stream ([7]; anionic detergent mixed with cell stream at an intersection): lysed cells sufficiently rapidly
